Experimental data reported in patent US11642344B2, “Cholesteryl ester transfer protein (CETP) inhibitor and pharmaceutical compositions comprising said inhibitor for use in the treatment or prevention of cardiovascular diseases” (NewAmsterdam Pharma B.V., priority 2014, dated 2023).
Read-outs that look alike come from different tables or passages of the source. Each block holds one molecule with its values, some of them ahead of it.

Columns and labels:
[1] = cited from earlier work; for mineralocorticoid activity: data from phase 2 studies; for off-target effects (in words): clinical trials
[2] = test system: HDL-C, LDL-C; conditions: cited from earlier work
[3] = target: T1, CETP (Homo sapiens, UniProt P11597); experiment: In vitro CETP assay: 3H-labeled CE transfer from HDL to VLDL/LDL in human plasma; format: biochemical; conditions: 24 h pre-incubation at 37° C.
T1 construct: from tissue; host or cells: plasma of Caucasian male subjects dosed with Compound A or placebo
T1 sequence (P11597 18-493): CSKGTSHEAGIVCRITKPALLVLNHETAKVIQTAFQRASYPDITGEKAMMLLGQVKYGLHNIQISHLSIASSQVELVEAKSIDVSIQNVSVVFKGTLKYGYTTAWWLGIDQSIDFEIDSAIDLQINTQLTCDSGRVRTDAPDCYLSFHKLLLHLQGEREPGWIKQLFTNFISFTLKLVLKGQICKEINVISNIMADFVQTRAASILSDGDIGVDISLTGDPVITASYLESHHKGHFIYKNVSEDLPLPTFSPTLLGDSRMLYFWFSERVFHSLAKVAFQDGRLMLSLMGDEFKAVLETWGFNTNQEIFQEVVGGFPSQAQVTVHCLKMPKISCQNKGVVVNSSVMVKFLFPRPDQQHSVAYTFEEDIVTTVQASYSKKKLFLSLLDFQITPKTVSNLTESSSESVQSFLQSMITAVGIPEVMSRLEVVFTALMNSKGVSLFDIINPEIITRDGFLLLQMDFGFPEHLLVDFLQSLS
Experimental: Human blood was obtained from healthy male volunteers using 0.1% EDTA as an anticoagulant, and centrifuged at 3,000 rpm for 15 minutes at 4° C. Human plasma was pooled, and then used for the preparation of ^3H-labeled HDL or stored at −80° C. for CETP assay until use. The ^3H-labeled HDL was prepared with human plasma as described by Glenn and Melton (Methods in enzymology. 263; 339-351, 1996). The specific gravity of plasma was measured by a hydrometer, and the density was adjusted to 1.125 g/mL by adding solid KBr. After centrifugation at 100,000 rpm for 4 hours at 12° C. (rotor: 100.4, Optima TLX, Beckman), d>1.125 g/mL fraction was dialyzed against 4 L of Tris-saline-EDTA buffer (TSE; 50 mmol/L Tris, 150 mmol/L NaCl, 2 mmol/L EDTA, pH7.4) for 18 hours at 4° C. [1,2-^3H(N)]-Cholesterol (37 MBq/mL) was added to the dialyzed plasma fraction at the amount of 2 μCi/mL. The tube was tightly sealed under N2 gas stream and incubated at 37° C. for 18 hours with gently stirring to allow esterification of radio-labeled cholesterol by endogenous LCAT. The incubated plasma fraction was adjusted to d=1.21 g/mL with solid KBr, and centrifuged at 100,000 rpm, 12° C. for 5 hours. ^3H-labeled HDL fraction was dialyzed against 2 L of TSE at 4° C. for 18 hours. The radioactivity of ^3H-labeled HDL was counted in a liquid scintillation counter. ^3H-labeled HDL was stored at 4° C. until use.
CETP activity was determined as the rate of ^3H-labeled CE transfer from donor HDL to acceptor VLDL/LDL. Human plasma (94 μL) was pre-incubated with compounds dissolved in DMSO (1 μL) 24 hours at 37° C., and then incubated for 4 hours at 4° C. or 37° C. with 5 μL of ^3H-labeled HDL. One hundred μL of phosphotungstate/MgCl2 reagent (Wako pure chemical) were added to precipitate apoB-containing lipoproteins. After centrifugation at 3,000 rpm for 10 minutes at room temperature, the radioactivity of the supernatant was counted in a liquid scintillation counter. […] The concentration achieving 50% inhibition of CETP activity (IC50) was estimated.

[4] = test system: CETP; experiment: Ex vivo serum CETP activity after oral administration to hamsters; design: species or system Syrian Golden hamsters; conditions: 3 mg/kg oral, suspension in 0.5% CMC, serum 3 hours after administration
Experimental: Syrian Golden hamsters were used for the experiment after 1-week acclimatization. After an overnight fast, animals were orally given the compound suspension in 0.5% sodium carboxymethylcellulose in a volume of 10 mL/kg. Under deep anesthesia with ether, blood was collected from the abdominal aorta 3 hours after the administration. For preparation of serum, the collected blood was transferred to a plastic tube containing a clot activator, left still for 15 minutes at room temperature and centrifuged. Serum CETP activities were determined immediately.
Ninety-five μL serum were added to 5 μL of […] sodium phosphate buffered saline (pH 7.0) containing 1.5 mM 5,5′-dithio-bis(2-nitrobenzoic acid) in two 96-well V-bottom plates. One plate was incubated at 4° C. and the other was incubated at 37° C. After 18 hours of incubation, each sample was mixed with 100 μL of reagent for precipitation of apolipoprotein B-containing lipoproteins (phosphotungstate/MgCl2 reagent, Wako pure chemical), left still for 10 minutes at room temperature and centrifuged. Total cholesterol (TC) and free cholesterol (FC) in supernatant were measured using commercial kits (Cholesterol E-test wako, and Free Cholesterol E-test wako; Wako pure chemical). Cholesteryl ester (CE) was calculated by subtracting FC from TC. CETP activity was determined by the following formula: CETP activity=[CETP transfer]*/[CE value in 4° C. incubation sample] *CETP transfer=[CE value in 4° C. incubation sample]−[CE value in 37° C. incubation sample] (c) Results

[5] = 200 mg once daily, fasted healthy subjects
[6] = 500 mg once daily monotherapy in patients

SMILES: COc1cc(F)c(C(C)C)cc1-c1ccc(C(F)(F)F)cc1CN1C(=O)O[C@H](c2cc(C(F)(F)F)cc(C(F)(F)F)c2)[C@@H]1C [Anacetrapib, anacetrapib]
mineralocorticoid activity [1]: without mineralocorticoid activity
decrease LDL-C ([2]; 150 mg once daily, patients): 40%
increase HDL C ([2]; 150 mg once daily, patients): 139%
decrease LDL-C [2, 5]: 36%
increase HDL C [2, 5]: 97%

SMILES: CCC(CC)CC1(C(=O)Nc2ccccc2SC(=O)C(C)C)CCCCC1 [Dalcetrapib, dalcetrapib]
off-target effects (in words) [1]: did not appear to exhibit the off-target effects of torcetrapib
effects on LDL-C concentrations ([2]; phase 2b clinical trials): minimal effects
increase HDL-C ([2]; phase 2b clinical trials): 30-40%

SMILES: Cc1cc(C)c2c(c1)[C@@H](N(Cc1cc(C(F)(F)F)cc(C(F)(F)F)c1)c1nnn(C)n1)CCCN2C[C@H]1CC[C@H](C(=O)O)CC1 [Evacetrapib, evacetrapib]
mineralocorticoid activity [1]: without mineralocorticoid activity
decrease LDL-C [2, 6]: 36%
increase HDL-C [2, 6]: 129%

SMILES: CCOC(=O)N1c2ccc(C(F)(F)F)cc2[C@@H](N(Cc2cc(C(F)(F)F)cc(C(F)(F)F)c2)C(=O)OC)C[C@H]1CC [Torcetrapib, torcetrapib]
off-target effects (in words) [1]: increased blood pressure, changes in electrolytes
cardiovascular events and death ([1]; in combination with atorvastatin, compared with atorvastatin alone): unexpected increase in cardiovascular events and death
decrease LDL-C ([2]; dosed at 60 mg, phase 3): 25%
increase HDL-C ([2]; dosed at 60 mg, phase 3): 72%

IC50 [3]: 0.21 µM
SMILES: CCOC(=O)N1c2ccc(C(F)(F)F)cc2C(N(Cc2cc(C(F)(F)F)cc(C(F)(F)F)c2)c2ncc(OCc3ccc(C(=O)O)cc3)cn2)CC1CC (stereo not drawn) [compound 1]
ex vivo (% inhibition) 3 mg/kg (CMC) [4]: 57.5%

IC50 [3]: 0.23 µM
SMILES: CCOC(=O)N1c2ccc(C(F)(F)F)cc2[C@@H](N(Cc2cc(C(F)(F)F)cc(C(F)(F)F)c2)c2ncc(OCc3cccc(C(=O)O)c3)cn2)C[C@H]1CC [compound 2]
ex vivo (% inhibition) 3 mg/kg (CMC) [4]: 38.4%

IC50 [3]: 0.45 µM
SMILES: CCOC(=O)N1c2ccc(C(F)(F)F)cc2C(N(Cc2cc(C(F)(F)F)cc(C(F)(F)F)c2)c2ncc(OCC(=O)NCC(=O)O)cn2)CC1CC (stereo not drawn) [compound 3]
ex vivo (% inhibition) 3 mg/kg (CMC) [4]: 5.4%

IC50 [3]: 0.79 µM
SMILES: CCOC(=O)N1c2ccc(C(F)(F)F)cc2C(N(Cc2cc(C(F)(F)F)cc(C(F)(F)F)c2)c2ncc(OCC(=O)N(C)CC(=O)O)cn2)CC1CC (stereo not drawn) [compound 4]
ex vivo (% inhibition) 3 mg/kg (CMC) [4]: 8.6%

IC50 [3]: 1.7 µM
SMILES: CCOC(=O)N1c2ccc(C(F)(F)F)cc2C(N(Cc2cc(C(F)(F)F)cc(C(F)(F)F)c2)c2ncc(OCC(=O)N3CCCC3C(=O)O)cn2)CC1CC (stereo not drawn) [compound 5]
ex vivo (% inhibition) 3 mg/kg (CMC) [4]: 6.2%

IC50 [3]: 0.22 µM
SMILES: CCOC(=O)N1c2ccc(C(F)(F)F)cc2C(N(Cc2cc(C(F)(F)F)cc(C(F)(F)F)c2)c2ncc(S(=O)(=O)CCCC(=O)O)cn2)CC1CC (stereo not drawn) [compound 6]
ex vivo (% inhibition) 3 mg/kg (CMC) [4]: 13.9%
